According to PubChem BioAssay AID330 (DTP/NCI, 2004):
“And” between values parts separate entries of the source, which are not always exact repeats. Identical values can stand only once. Toxic doses and inconclusive results are not listed. The calls were made as follows: active = survival T/C of 150% or more; inactive = T/C below 125% in these data.

Test system: P388 leukemia ip, CD2F1 mice, survival T/C
Assay: NCI In Vivo Anticancer Drug Screen. Data for tumor model P388 Leukemia (intraperitoneal) in CD2F1 (CDF1) mice
Details: endpoint: median survival time, higher = longer survival
Procedure, shortened: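 Mice carrying the transplanted tumor received test compound or vehicle. Survival was recorded in each group, and the value is the treated-group measurement divided by that of the vehicle-treated control group.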

[1] = dose: 50.0 mg/kg/injection, schedule: Q01DX009 (ip), vehicle: saline with Tween-80
[2] = dose: 100.0 mg/kg/injection, schedule: Q01DX009 (ip), vehicle: saline with Tween-80
[3] = dose: 200.0 mg/kg/injection, schedule: Q01DX009 (ip), vehicle: saline with Tween-80
[4] = dose: 400.0 mg/kg/injection, schedule: Q01DX009 (ip), vehicle: saline with Tween-80
[5] = dose: 50.0 mg/kg/injection, schedule: Q01DX009 (ip), vehicle: Klucel (hydroxypropylcellulose) (HPC)
[6] = dose: 100.0 mg/kg/injection, schedule: Q01DX009 (ip), vehicle: Klucel (hydroxypropylcellulose) (HPC)
[7] = dose: 200.0 mg/kg/injection, schedule: Q01DX009 (ip), vehicle: Klucel (hydroxypropylcellulose) (HPC)
[8] = dose: 12.5 mg/kg/injection, schedule: Q01DX009 (ip), vehicle: Klucel (hydroxypropylcellulose) (HPC)
[9] = dose: 25.0 mg/kg/injection, schedule: Q01DX009 (ip), vehicle: Klucel (hydroxypropylcellulose) (HPC)
[10] = dose: 50.0 mg/kg/injection, schedule: Q01DX005 (ip), vehicle: saline with Tween-80
[11] = dose: 100.0 mg/kg/injection, schedule: Q01DX005 (ip), vehicle: saline with Tween-80
[12] = dose: 200.0 mg/kg/injection, schedule: Q01DX005 (ip), vehicle: saline with Tween-80
[13] = dose: 50.0 mg/kg/injection, schedule: Q01DX005 (ip), vehicle: Klucel (hydroxypropylcellulose) (HPC)
[14] = dose: 100.0 mg/kg/injection, schedule: Q01DX005 (ip), vehicle: Klucel (hydroxypropylcellulose) (HPC)
[15] = dose: 12.5 mg/kg/injection, schedule: Q01DX009 (ip), vehicle: saline with Tween-80
[16] = dose: 25.0 mg/kg/injection, schedule: Q01DX009 (ip), vehicle: saline with Tween-80
[17] = dose: 100.0 mg/kg/injection, schedule: Q04DX003 (ip), vehicle: saline with Tween-80
[18] = dose: 200.0 mg/kg/injection, schedule: Q04DX003 (ip), vehicle: saline with Tween-80
[19] = dose: 400.0 mg/kg/injection, schedule: Q04DX003 (ip), vehicle: saline with Tween-80
[20] = dose: 50.0 mg/kg/injection, schedule: Q04DX003 (ip), vehicle: saline with Tween-80

Measured: T/C

CC1C(=O)OC2C(O)C34C5OC(=O)C3(OC3OC(=O)C(O)C34C(C(C)(C)C)C5O)C12O (stereo unspecified)
inactive: dose: 5.0 mg/kg/injection, schedule: Q01DX005 (ip), vehicle: Klucel (hydroxypropylcellulose) (HPC) 93 % of control | dose: 10.0 mg/kg/injection, schedule: Q01DX005 (ip), vehicle: Klucel (hydroxypropylcellulose) (HPC) 95 % of control | dose: 20.0 mg/kg/injection, schedule: Q01DX005 (ip), vehicle: Klucel (hydroxypropylcellulose) (HPC) 89 % of control | dose: 40.0 mg/kg/injection, schedule: Q01DX005 (ip), vehicle: Klucel (hydroxypropylcellulose) (HPC) 93 % of control | dose: 80.0 mg/kg/injection, schedule: Q01DX005 (ip), vehicle: Klucel (hydroxypropylcellulose) (HPC) 89 % of control

COc1cc(CN)ccc1O
inactive: [1] 103 % of control | [2] 110 % of control | dose: 100.0 mg/kg/injection, schedule: Q01DX009 (ip), vehicle: saline 104 % of control | [3] 103 % of control | dose: 200.0 mg/kg/injection, schedule: Q01DX009 (ip), vehicle: saline 101 % of control | [4] 104 % of control | dose: 400.0 mg/kg/injection, schedule: Q01DX009 (ip), vehicle: saline 104 % of control | dose: 600.0 mg/kg/injection, schedule: Q01DX009 (ip), vehicle: saline 107 % of control

c1ccc2c3c([nH]c2c1)CCCC3
inactive: [5] 102 % of control | [6] 103 % of control | [7] 111 % of control

C/C(=N\SC(c1ccccc1)(c1ccccc1)c1ccccc1)c1ccccc1
inactive: dose: 100.0 mg/kg/injection, schedule: Q01DX001 (ip), vehicle: saline with Tween-80 95 % of control | dose: 200.0 mg/kg/injection, schedule: Q01DX001 (ip), vehicle: saline with Tween-80 88 % of control

CCCN(CCC)CC(=O)NC1CC(OC2CC(O)(C(C)=O)Cc3c(O)c4c(c(O)c32)C(=O)c2c(OC)cccc2C4=O)OC(C)C1O (stereo unspecified)
inactive: dose: 0.25 mg/kg/injection, schedule: Q01DX009 (ip), vehicle: water 107 % of control | dose: 0.5 mg/kg/injection, schedule: Q01DX009 (ip), vehicle: water 101 % of control | dose: 1.0 mg/kg/injection, schedule: Q01DX009 (ip), vehicle: water 107 % of control | dose: 2.0 mg/kg/injection, schedule: Q01DX009 (ip), vehicle: water 103 % of control | dose: 4.0 mg/kg/injection, schedule: Q01DX009 (ip), vehicle: water 100 % of control | dose: 8.0 mg/kg/injection, schedule: Q01DX009 (ip), vehicle: water 107 % of control

CS(=O)(=O)OC1COCOC1C1OCOCC1OS(C)(=O)=O (stereo unspecified)
inactive: [8] 91 % of control | [9] 92 % of control | [5] 95 % of control | [7] 102 % of control

Cc1ccc(NC(=O)c2cc(C)ccc2N)cc1
inactive: [10] 91 % of control | [11] 91 % of control | [12] 101 % of control

CC(=O)N(O)c1ccc(S(N)(=O)=O)cc1
inactive: [1] 113 % of control | [2] 100 % of control | [3] 98 % of control

COC(=O)[C@H]1O[C@H]1c1ccncc1
inactive: [13] 100 % of control and 104 % of control | [14] 103 % of control and 92 % of control | dose: 200.0 mg/kg/injection, schedule: Q01DX005 (ip), vehicle: Klucel (hydroxypropylcellulose) (HPC) 103 % of control and 94 % of control | dose: 400.0 mg/kg/injection, schedule: Q01DX005 (ip), vehicle: Klucel (hydroxypropylcellulose) (HPC) 101 % of control and 92 % of control

CN(C)c1cc(N(C)C)c2cc(Cl)ccc2n1
inactive: [5] 106 % of control | [6] 100 % of control

N#Cc1c(C(=O)NN)cc(-c2ccc3ccccc3c2)[nH]c1=O
inactive: [10] 100 % of control | [11] 98 % of control

COc1cc(OC)c(Br)cc1C
inactive: [15] 100 % of control | [16] 91 % of control | [1] 91 % of control | [17] 104 % of control | [18] 104 % of control | [19] 104 % of control

CC(C)(Oc1ccc(Cl)cc1)C(=O)OCCCC(=O)NC1CC(C)(C)N(O)C(C)(C)C1
inactive: dose: 200.0 mg/kg/injection, schedule: Q01DX001 (ip), vehicle: saline 105 % of control | dose: 400.0 mg/kg/injection, schedule: Q01DX001 (ip), vehicle: saline 115 % of control

COc1cc(/C=C2\C(=O)C=C(C)CC2(C)C)ccc1O
inactive: [20] 95 % of control | [17] 90 % of control

CNC(=S)/C(C(C)=O)=C(\C)Nc1ccccc1
inactive: [5] 101 % of control | [6] 106 % of control | [7] 106 % of control

Cc1cc2nc(=O)cc(CCl)n2c(=O)n1C(=O)C(O)C(O)C(O)CO (stereo unspecified)
inactive: [10] 109 % of control | [11] 117 % of control | [12] 113 % of control

CN(C)CCC(=O)/C=C\c1ccccc1
inactive: dose: 25.0 mg/kg/injection, schedule: Q01DX009 (ip), vehicle: saline 107 % of control | dose: 50.0 mg/kg/injection, schedule: Q01DX009 (ip), vehicle: saline 108 % of control

CCSCCC1(CCC(C)C)C(=O)NC(=Nc2ccccc2)NC1=O (stereo unspecified)
inactive: [1] 99 % of control | [2] 95 % of control | [3] 99 % of control | [4] 95 % of control

CC(C)=CCC1=CC(=O)C(CC=C(C)C)=CC1=O
inactive: dose: 3.12 mg/kg/injection, schedule: Q01DX009 (ip), vehicle: saline with Tween-80 105 % of control | dose: 6.25 mg/kg/injection, schedule: Q01DX009 (ip), vehicle: saline with Tween-80 118 % of control | [15] 100 % of control | [16] 90 % of control and 96 % of control

C/C1=C/C(O)C/C(C)=C\C(O)C(=O)/C=C/C2C(CC1)C2(C)C (stereo unspecified)
inactive: dose: 2.5 mg/kg/injection, schedule: Q01DX005 (ip), vehicle: distilled water + Tween-80 + alcohol 104 % of control | dose: 5.0 mg/kg/injection, schedule: Q01DX005 (ip), vehicle: distilled water + Tween-80 + alcohol 105 % of control | dose: 10.0 mg/kg/injection, schedule: Q01DX005 (ip), vehicle: distilled water + Tween-80 + alcohol 100 % of control | dose: 20.0 mg/kg/injection, schedule: Q01DX005 (ip), vehicle: distilled water + Tween-80 + alcohol 108 % of control

CN(C)c1ccc(-c2nc3ccccc3s2)c(Cl)c1
inactive: [1] 102 % of control | [2] 103 % of control | [3] 109 % of control

Cc1cnc(C#N)c(Cl)n1
inactive: [2] 100 % of control | [17] 110 % of control | [3] 115 % of control | [18] 110 % of control | [19] 100 % of control

O=C1/C(=N/O)Cc2ccccc21
inactive: dose: 12.5 mg/kg/injection, schedule: Q04DX003 (ip), vehicle: saline with Tween-80 100 % of control | dose: 25.0 mg/kg/injection, schedule: Q04DX003 (ip), vehicle: saline with Tween-80 100 % of control | [20] 100 % of control

COc1cccc2c(Nc3ccc4c(c3)OCO4)c(C(=O)O)cnc12
inactive: dose: 60.0 mg/kg/injection, schedule: Q01DX005 (ip), vehicle: Klucel + Tween-80 94 % of control | dose: 120.0 mg/kg/injection, schedule: Q01DX005 (ip), vehicle: Klucel + Tween-80 103 % of control

CC1(C)CC(=O)C=C(NCc2ccccc2)C1
inactive: [16] 104 % of control | [1] 104 % of control and 90 % of control | [2] 101 % of control and 96 % of control | [3] 99 % of control and 91 % of control

COc1cc(NC(=O)c2ccc(NC(=O)c3ccc(N)cc3)cc2)c(OC)cc1N=Nc1cc(C)c(N=Nc2cc(S(=O)(=O)O)c3cccc(S(=O)(=O)O)c3c2)cc1C
inactive: [10] 100 % of control | [11] 94 % of control

CCOC(=O)c1nc2ccccc2c(=O)[nH]1
inactive: [2] 102 % of control | [3] 108 % of control | [4] 100 % of control

CCc1nc(N)nc(N)c1-c1ccc(N(C)C)c(N)c1
inactive: [13] 100 % of control | [14] 96 % of control

CN(C)CCNC(c1ccccc1)C(O)c1ccccc1 (stereo unspecified)
inactive: [5] 100 % of control | [6] 101 % of control

C[S+]1CCC(C(=O)[O-])N1 (stereo unspecified)
inactive: dose: 50.0 mg/kg/injection, schedule: Q01DX005 (ip), vehicle: saline 101 % of control | dose: 100.0 mg/kg/injection, schedule: Q01DX005 (ip), vehicle: saline 98 % of control | dose: 200.0 mg/kg/injection, schedule: Q01DX005 (ip), vehicle: saline 98 % of control

CC(=O)OCC1OC(S[As](C)CCO)C(OC(C)=O)C(OC(C)=O)C1OC(C)=O (stereo unspecified)
inactive: [8] 103 % of control and 109 % of control | [9] 102 % of control and 113 % of control | [5] 103 % of control and 117 % of control and 122 % of control | [6] 111 % of control and 116 % of control | [7] 108 % of control
